Where two headings read alike, the source gives them in different places.
Columns and labels:
[1] = tested on: Swiss albino mice; assay: Analgesic activity against acetic acid induced writhing; type: in vivo; details: 10 mg/kg p.o., 1 h before i.p. 0.6% acetic acid; writhes counted for 10 min
From the text: (§1) Male Wistar rats weighing 175-200 g and Swiss albino mice weighing 20-25 g were housed in the Animal Care Facility. The animals were fed standard laboratory feed and tap water. Unless otherwise noted, in all experiments described in the following text, the sample size in each group was at least 6.
Analgesic Activity Against Acetic Acid Induced Writhing
Pain was induced by injection of irritant i.e. acetic acid into the peritoneal cavity of mice. […] Vehicle (1% w/v carboxymethylcellulose (CMC), 0.5 ml per orally (p.o.)) was given to control group (n=6 per group) of mice. […]. One hour following the administration of test molecule, 0.1 ml/100 gm of 0.6% v/v acetic acid solution was injected intraperitoneally to each of the test mice. The number of writhes that occurred within the next 10 min following acetic acid administration was counted and recorded. Results were expressed as percentage inhibition of writhing.

[2] = tested on: Wistar rats; assay: Carrageenan-induced rat paw edema model; type: in vivo; details: 10 mg/kg oral, 2 h before carrageenan; for Anti-inflammatory activity in Wistar rats (% inhibition) 3 h: paw edema at 3 h; for Anti-inflammatory activity in Wistar rats (% inhibition) 4 h: paw edema at 4 h
Protocol: as §1
In Vivo Screening Method, Carrageenan-Induced Rat Paw Edema Model
Male Wistar rats (120-140 gm) were fasted for 16 hour before the experiment. Anti-inflammatory activity was evaluated by carrageenan-induced paw edema test in rats. Diclofenac sodium, tolfenamic acid and celecoxib at 10 mg/kg were administered as standard drugs for comparison. The test molecules were administered at dose level 10 mg/kg. Molecules were suspended in 0.25% carboxymethylcellulose (CMC) and administered orally in a volume of 10 ml/kg, 2 hour before carrageenan injection. Paw edema was induced in rats by intradermal injection of 50 μl, of 1% λ-carrageenan in saline into the planer surface of right hind paw. The volume of the injected paw was measured hourly thereafter for 4 hours using plethysmometer (Ugo-Basile, Italy). Paw edema was compared with vehicle controlled group and percentage inhibition was calculated.

[3] = tested on: Wistar rats; details: for Gastric score: 100 mg/kg oral, fasted rats, 5 hours, sum of lesion lengths, mean SEM, 6 rats; for Histopathology study (ulcerogenecity): Dose 100 mg/kg oral, rat stomach
Protocol: (§2) Assessment of Gastric Ulcerogenic Effects in the Rat on Acute Administration of Drugs
(§3) Groups of 6 male Wistar rats weighing 120-140 g were fasted for 24 h with free access to water. […] The lengths (in millimeters) of all hemorrhagic lesions were measured and the “gastric damage score” was calculated for each stomach by summing these values. After scoring the damage, a sample of the corpus region of each stomach was fixed in neutral buffered formalin for subsequent histologic assessment.

[4] = Acute oral toxicity studies (OECD AOT No. 425); details: both sexes, mouse, in vivo, albino mice, observed 48 hrs
Protocol: Acute Oral Toxicity Studies
The mice were observed continuously for 2 h for behavioral, neurological and autonomic profiles for any lethality or death for next 48 hrs. Based on the results obtained from this study, lethal dose (LD50) was calculated.

[5] = tested on: Wistar rats; details: rat, in vivo, po, 100 mg/kg
Protocol: as §2, §3

SMILES	melting point	Analgesic activity in Swiss albino mice (% inhibition) [1]	Anti-inflammatory activity in Wistar rats (% inhibition) 3 h [2]	Anti-inflammatory activity in Wistar rats (% inhibition) 4 h [2]	other results
O=[N+]([O-])c1cn(Cc2ccc(-c3ccccc3-c3nnn[nH]3)cc2)cn1	202 to 204 °C	–	–	–	–
Cc1nc([N+](=O)[O-])c(Br)n1Cc1ccc(-c2ccccc2C#N)cc1	158 to 162 °C	–	–	–	–
Cc1nc([N+](=O)[O-])c(Br)n1Cc1ccc(-c2ccccc2C(=O)O)cc1	222 to 225 °C	–	–	–	–
Cc1ncc([N+](=O)[O-])n1Cc1ccc(-c2ccccc2C#N)cc1 [4′-(2-Methyl-5-nitro-imidazol-1-ylmethyl)-biphenyl-2-carbonitrile]	–	84.25%	19.52%	24.25%	–
N#Cc1ccccc1-c1ccc(Cn2cnc([N+](=O)[O-])c2)cc1 [4′-(4-Nitro-imidazol-1-ylmethyl)-biphenyl-2-carbonitrile]	–	86.61%	35.82%	44.28%	Gastric score [3]: 1.83 ± 0.54; Histopathology study (ulcerogenecity) [3]: No sign of ulceration
O=C(O)c1ccccc1-c1ccc(Cn2cnc([N+](=O)[O-])c2)cc1 [4′-(4-Nitro-imidazol-1-ylmethyl)-biphenyl-2-carboxylic acid]	–	84.13%	38.31%	44.63%	Gastric score [3]: 1.6 ± 0.50; Histopathology study (ulcerogenecity) [3]: No sign of ulceration
Cc1ccc(-c2cc(C(F)(F)F)nn2-c2ccc(S(N)(=O)=O)cc2)cc1 [Celecoxib, reference compound]	–	77.0%	45.24%	45.32%	LD50 at 48 h [4]: < 2000 mg/kg; Histopathology study (ulcerogenecity) [5]: No sign of ulceration
O=C(O)Cc1ccccc1Nc1c(Cl)cccc1Cl [Diclofenac sodium, reference compound]	–	89.51%	35.05%	39.99%	–
NS(=O)(=O)c1ccc(Nc2ccccc2-c2ccc(Cn3cc([N+](=O)[O-])nc3CO)cc2)cc1 [Formula (I) Sr. No. 7, 4-[4′-(2-Hydroxymethyl-4-nitro-imidazol-1-ylmethyl)-biphenyl-2-ylamino]-benzenesulfonamide]	154 to 155 °C	–	–	–	–
Cc1c(Cl)cccc1Nc1ccccc1C(=O)O [Tolfenamic acid]	–	–	–	–	LD50 at 48 h [4]: < 550 mg/kg; Histopathology study (ulcerogenecity) [5]: Shows sign of

Source: patent US8236843B2, “Anti inflammatory compounds” (Elder Pharmaceuticals Ltd., priority 2008, dated 2012)
